Measured values taken from patent US20140309210A1, “INDAZOLE COMPOUNDS, COMPOSITIONS AND METHODS OF USE THEREOF” (Genentech, Inc., priority 2011, published 2014).

Molecular target: T1, purified ITK (Invitrogen PV3875) (Homo sapiens, UniProt Q08881)
T1 construct: purchased Invitrogen PV3875
T1 sequence (Q08881 1-620): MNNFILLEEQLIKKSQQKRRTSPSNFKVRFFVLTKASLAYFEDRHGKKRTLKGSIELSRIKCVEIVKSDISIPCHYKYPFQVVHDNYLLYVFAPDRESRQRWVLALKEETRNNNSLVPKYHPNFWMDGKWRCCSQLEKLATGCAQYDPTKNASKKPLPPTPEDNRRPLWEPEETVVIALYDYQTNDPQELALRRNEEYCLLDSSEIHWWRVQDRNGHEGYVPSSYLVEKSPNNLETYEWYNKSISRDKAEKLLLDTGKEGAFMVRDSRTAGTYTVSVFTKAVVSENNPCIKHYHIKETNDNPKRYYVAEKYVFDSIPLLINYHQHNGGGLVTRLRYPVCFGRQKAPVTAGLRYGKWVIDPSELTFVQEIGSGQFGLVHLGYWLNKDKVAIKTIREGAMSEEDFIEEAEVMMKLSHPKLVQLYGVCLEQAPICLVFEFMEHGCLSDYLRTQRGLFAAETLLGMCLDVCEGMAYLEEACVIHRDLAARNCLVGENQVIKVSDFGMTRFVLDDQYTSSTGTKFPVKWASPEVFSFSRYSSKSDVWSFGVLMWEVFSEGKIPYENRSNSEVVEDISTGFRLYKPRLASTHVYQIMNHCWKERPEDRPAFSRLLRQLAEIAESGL
Test: ITK peptide phosphorylation assay (Caliper LabChip or LCMS)
Type: biochemical
Details: Table 2, Examples 1-140, class symbols
How it was run: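 Purified human ITK peptide phosphorylation, quenched with EDTA (50 mM final) for Caliper LabChip separation or TCA (5% v/v final) for UPLC-MS/MS MRM quantification. Ki derived via Morrison tight-binding equation, corrected for competitive inhibition using ATP concentration relative to Km,app.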

Ki | SMILES
1 to 100 nM | COc1cncc(-c2ccc3c(C(=O)Nc4cnn(Cc5ccccc5)c4)n[nH]c3c2)c1 [Example 85, N-(1-benzyl-1H-pyrazol-4-yl)-6-(5-methoxypyridin-3-yl)-1H-indazole-3-carboxamide]
1 to 100 nM | N#Cc1cccc(Cn2cc(NC(=O)c3n[nH]c4cc(N5CCCC5)ccc34)cn2)c1 [Example 86, N-(1-(3-cyanobenzyl)-1H-pyrazol-4-yl)-6-(pyrrolidin-1-yl)-1H-indazole-3-carboxamide]
1 to 100 nM | Cn1cnc(-c2ccc3c(C(=O)Nc4cnn(Cc5ccccc5)c4)n[nH]c3c2)c1 [Example 87, N-(1-benzyl-1H-pyrazol-4-yl)-6-(1-methyl-1H-imidazol-4-yl)-1H-indazole-3-carboxamide]
1 to 100 nM | N#Cc1cccc(Cn2cc(NC(=O)c3n[nH]c4cc(N5CCC(O)C5)ccc34)cn2)c1 (stereo not shown) [Example 88, N-(1-(3-cyanobenzyl)-1H-pyrazol-4-yl)-6-(3-hydroxypyrrolidin-1-yl)-1H-indazole-3-carboxamide]
1 to 100 nM | CC(C)(O)CNCc1cccc(Cn2cc(NC(=O)c3n[nH]c4ccccc34)cn2)c1 [Example 90, N-(1-(3-((2-hydroxy-2-methylpropylamino)methyl)benzyl)-1H-pyrazol-4-yl)-1H-indazole-3-carboxamide]
1 to 100 nM | O=C(Nc1cnn(Cc2cccc(CN3CCC3)c2)c1)c1n[nH]c2ccccc12 [Example 91, N-(1-(3-(azetidin-1-ylmethyl)benzyl)-1H-pyrazol-4-yl)-1H-indazole-3-carboxamide]
1 to 100 nM | O=C(Nc1cnn(Cc2cccc(CNCC(F)F)c2)c1)c1n[nH]c2ccccc12 [Example 92, N-(1-(3-((2,2-difluoroethylamino)methyl)benzyl)-1H-pyrazol-4-yl)-1H-indazole-3-carboxamide]
1 to 100 nM | CC(O)CNCc1cccc(Cn2cc(NC(=O)c3n[nH]c4ccccc34)cn2)c1 (stereo not shown) [Example 93, N-(1-(3-((2-hydroxypropylamino)methyl)benzyl)-1H-pyrazol-4-yl)-1H-indazole-3-carboxamide]
1 to 100 nM | O=C(Nc1cnn(Cc2cccc(CNC3CCC3)c2)c1)c1n[nH]c2ccccc12 [Example 94, N-(1-(3-((cyclobutylamino)methyl)benzyl)-1H-pyrazol-4-yl)-1H-indazole-3-carboxamide]
1 to 100 nM | O=C(Nc1cnn(Cc2cccc(CNCC3CC3)c2)c1)c1n[nH]c2ccccc12 [Example 95, N-(1-(3-((cyclopropylmethylamino)methyl)benzyl)-1H-pyrazol-4-yl)-1H-indazole-3-carboxamide]
1 to 100 nM | O=C(Nc1cnn(Cc2cccc(CNCCO)c2)c1)c1n[nH]c2ccccc12 [Example 96, N-(1-(3-((2-hydroxyethylamino)methyl)benzyl)-1H-pyrazol-4-yl)-1H-indazole-3-carboxamide]
1 to 100 nM | CCCNCc1cccc(Cn2cc(NC(=O)c3n[nH]c4ccccc34)cn2)c1 [Example 97, N-(1-(3-((propylamino)methyl)benzyl)-1H-pyrazol-4-yl)-1H-indazole-3-carboxamide]
1 to 100 nM | O=C(Nc1cnn(Cc2cccc(CNC3CC3)c2)c1)c1n[nH]c2ccccc12 [Example 98, N-(1-(3-((cyclopropylamino)methyl)benzyl)-1H-pyrazol-4-yl)-1H-indazole-3-carboxamide]
1 to 100 nM | CCNCc1cccc(Cn2cc(NC(=O)c3n[nH]c4ccccc34)cn2)c1 [Example 99, N-(1-(3-((ethylamino)methyl)benzyl)-1H-pyrazol-4-yl)-1H-indazole-3-carboxamide]
1 to 100 nM | CN(CCC#N)Cc1cccc(Cn2cc(NC(=O)c3n[nH]c4ccccc34)cn2)c1 [Example 100, N-(1-(3-(((2-cyanoethyl)(methyl)amino)methyl)benzyl)-1H-pyrazol-4-yl)-1H-indazole-3-carboxamide]
1 to 100 nM | CNCc1cccc(Cn2cc(NC(=O)c3n[nH]c4ccccc34)cn2)c1 [Example 101, N-(1-(3-((methylamino)methyl)benzyl)-1H-pyrazol-4-yl)-1H-indazole-3-carboxamide]
1 to 100 nM | CN(C)CCNCc1cccc(Cn2cc(NC(=O)c3n[nH]c4ccccc34)cn2)c1 [Example 102, N-(1-(3-((2-(dimethylamino)ethylamino)methyl)benzyl)-1H-pyrazol-4-yl)-1H-indazole-3-carboxamide]
1 to 100 nM | O=C(Nc1cnn(Cc2ccc(CN3CCC3)cc2)c1)c1n[nH]c2ccccc12 [Example 103, N-(1-(4-(azetidin-1-ylmethyl)benzyl)-1H-pyrazol-4-yl)-1H-indazole-3-carboxamide]

Ki | SMILES
1 to 100 nM | CN(C)CCNCc1ccc(Cn2cc(NC(=O)c3n[nH]c4ccccc34)cn2)cc1 [Example 104, N-(1-(4-((2-(dimethylamino)ethylamino)methyl)benzyl)-1H-pyrazol-4-yl)-1H-indazole-3-carboxamide]
1 to 100 nM | O=C(Nc1cnn(Cc2ccc(CNCC(F)F)cc2)c1)c1n[nH]c2ccccc12 [Example 105, N-(1-(4-((2,2-difluoroethylamino)methyl)benzyl)-1H-pyrazol-4-yl)-1H-indazole-3-carboxamide]
1 to 100 nM | CC(O)CNCc1ccc(Cn2cc(NC(=O)c3n[nH]c4ccccc34)cn2)cc1 (stereo not shown) [Example 106, N-(1-(4-((2-hydroxypropylamino)methyl)benzyl)-1H-pyrazol-4-yl)-1H-indazole-3-carboxamide]
1 to 100 nM | O=C(Nc1cnn(Cc2ccc(CNC3CCC3)cc2)c1)c1n[nH]c2ccccc12 [Example 107, N-(1-(4-((cyclobutylamino)methyl)benzyl)-1H-pyrazol-4-yl)-1H-indazole-3-carboxamide]
1 to 100 nM | O=C(Nc1cnn(Cc2ccc(CNCC3CC3)cc2)c1)c1n[nH]c2ccccc12 [Example 108, N-(1-(4-((cyclopropylmethylamino)methyl)benzyl)-1H-pyrazol-4-yl)-1H-indazole-3-carboxamide]
1 to 100 nM | CCCNCc1ccc(Cn2cc(NC(=O)c3n[nH]c4ccccc34)cn2)cc1 [Example 109, N-(1-(4-((propylamino)methyl)benzyl)-1H-pyrazol-4-yl)-1H-indazole-3-carboxamide]
1 to 100 nM | CCNCc1ccc(Cn2cc(NC(=O)c3n[nH]c4ccccc34)cn2)cc1 [Example 110, N-(1-(4-((ethylamino)methyl)benzyl)-1H-pyrazol-4-yl)-1H-indazole-3-carboxamide]
1 to 100 nM | CN(CCC#N)Cc1ccc(Cn2cc(NC(=O)c3n[nH]c4ccccc34)cn2)cc1 [Example 111, N-(1-(4-(((2-cyanoethyl)(methyl)amino)methyl)benzyl)-1H-pyrazol-4-yl)-1H-indazole-3-carboxamide]
1 to 100 nM | CNCc1ccc(Cn2cc(NC(=O)c3n[nH]c4ccccc34)cn2)cc1 [Example 112, N-(1-(4-((methylamino)methyl)benzyl)-1H-pyrazol-4-yl)-1H-indazole-3-carboxamide]
1 to 100 nM | CC(C)(O)CNCc1ccc(Cn2cc(NC(=O)c3n[nH]c4ccccc34)cn2)cc1 [Example 113, N-(1-(4-((2-hydroxy-2-methylpropylamino)methyl)benzyl)-1H-pyrazol-4-yl)-1H-indazole-3-carboxamide]
1 to 100 nM | O=C(Nc1cnn(Cc2ccc(CN3CCC(O)C3)cc2)c1)c1n[nH]c2ccccc12 (stereo not shown) [Example 114, N-(1-(4-((3-hydroxypyrrolidin-1-yl)methyl)benzyl)-1H-pyrazol-4-yl)-1H-indazole-3-carboxamide]
1 to 100 nM | CN(C)Cc1ccc(Cn2cc(NC(=O)c3n[nH]c4ccccc34)cn2)cc1 [Example 115, N-(1-(4-((dimethylamino)methyl)benzyl)-1H-pyrazol-4-yl)-1H-indazole-3-carboxamide]
1 to 100 nM | COc1ccc(-c2ccc3c(C(=O)Nc4cnn(Cc5cccc(C#N)c5)c4)n[nH]c3c2)cn1 [Example 117, N-(1-(3-cyanobenzyl)-1H-pyrazol-4-yl)-6-(6-methoxypyridin-3-yl)-1H-indazole-3-carboxamide]
> 100 nM | Cc1ncccc1-c1ccc2c(C(=O)Nc3cnn(Cc4cccc(C#N)c4)c3)n[nH]c2c1 [Example 118, N-(1-(3-cyanobenzyl)-1H-pyrazol-4-yl)-6-(2-methylpyridin-3-yl)-1H-indazole-3-carboxamide]
1 to 100 nM | Cc1ccc(-c2ccc3c(C(=O)Nc4cnn(Cc5cccc(C#N)c5)c4)n[nH]c3c2)cn1 [Example 120, N-(1-(3-cyanobenzyl)-1H-pyrazol-4-yl)-6-(6-methylpyridin-3-yl)-1H-indazole-3-carboxamide]
1 to 100 nM | Cn1cc(-c2ccc3c(C(=O)Nc4cnn(Cc5cccc(C#N)c5)c4)n[nH]c3c2)cn1 [Example 121, N-(1-(3-cyanobenzyl)-1H-pyrazol-4-yl)-6-(1-methyl-1H-pyrazol-4-yl)-1H-indazole-3-carboxamide]
1 to 100 nM | CC(c1ccccc1)n1cc(NC(=O)c2n[nH]c3ccccc23)cn1 (stereo not shown) [Example 131, N-(1-(1-phenylethyl)-1H-pyrazol-4-yl)-1H-indazole-3-carboxamide]

Same assay, conditions: Table 3, specific values for certain examples

Ki | SMILES
38.7 nM | O=C(Nc1cnn(Cc2cccc(CNCCO)c2)c1)c1n[nH]c2ccccc12 [Example 96, N-(1-(3-((2-hydroxyethylamino)methyl)benzyl)-1H-pyrazol-4-yl)-1H-indazole-3-carboxamide]
110 nM | Cc1ncccc1-c1ccc2c(C(=O)Nc3cnn(Cc4cccc(C#N)c4)c3)n[nH]c2c1 [Example 118, N-(1-(3-cyanobenzyl)-1H-pyrazol-4-yl)-6-(2-methylpyridin-3-yl)-1H-indazole-3-carboxamide]
